ChEMBL document CHEMBL1126336, “Benzopyranyl-cyanoguanidine potassium channel openers” (Bioorg Med Chem Lett, 1992)

What was measured:
Format in all cases: functional
Rattus norvegicus [1] = test: Antihypertensive activity expressed as percent maximum decrease in blood pressure at 45 umol/kg for 12-18 hrs in male spontaneously hypertensive rats when administered perorally
Rattus norvegicus [2] = test: Antihypertensive activity expressed as percent maximum decrease in blood pressure at 45 umol/kg for 0-6 hrs in male spontaneously hypertensive rats when administered perorally
Rattus norvegicus [3] = species: Rattus norvegicus; test: Vasorelaxant potency required to relax methoxamine contracted male Wistar Kyoto rat thoracic aorta
Rattus norvegicus [4] = test: Antihypertensive activity expressed as percent maximum decrease in blood pressure at 45 umol/kg for 18-24 hrs in male spontaneously hypertensive rats when administered perorally
Rattus norvegicus [5] = test: Antihypertensive activity expressed as percent maximum decrease in blood pressure at 45 umol/kg for 6-12 hrs in male spontaneously hypertensive rats when administered perorally

Row | Structure (SMILES) | IC50 (Rattus norvegicus [3]) [nM] | also measured
1 | CC1(C)Oc2ccc(C#N)cc2[C@@H](N2CCCN=C2NC#N)[C@@H]1O | 120 | 
2 | CC1(C)Oc2ccc(C#N)cc2[C@@H](/N=C(\NC#N)N2CCN(Cc3ccccc3)CC2)[C@@H]1O | 13100 | 
3 | CC(N/C(=N\C#N)Nc1ccncc1)C(C)(C)C (centres undefined) [PINACIDIL ANHYDROUS] |  | Max decrease (Rattus norvegicus [1]): 23%; Max decrease (Rattus norvegicus [2]): 40%; Max decrease (Rattus norvegicus [4]): 14%; Max decrease (Rattus norvegicus [5]): 21%
4 | CCC(C)(C)/N=C(\NC#N)N[C@@H]1c2cc(C#N)ccc2OC(C)(C)[C@H]1O | 29800 | 
5 | CC1(C)Oc2ccc(C#N)cc2[C@@H](N2CCCC2=O)[C@@H]1O [CROMAKALIM] |  | Max decrease (Rattus norvegicus [1]): 37%; Max decrease (Rattus norvegicus [2]): 63%; Max decrease (Rattus norvegicus [4]): 42%; Max decrease (Rattus norvegicus [5]): 35%
6 | CN(C)/C(=N/[C@@H]1c2cc(C#N)ccc2OC(C)(C)[C@H]1O)NC#N | 490 | 
7 | CC1(C)Oc2ccc(C#N)cc2[C@@H](/N=C(\NC#N)N2CCCC2)[C@@H]1O | 34 | 
8 | CC(C)/N=C(/NC#N)N[C@@H]1c2cc(C#N)ccc2OC(C)(C)[C@H]1O | 660 | 
9 | COCC/N=C(/NC#N)N[C@@H]1c2cc(C#N)ccc2OC(C)(C)[C@H]1O | 1690 | 

Now from value to molecule, other results behind:

Row | IC50 (Rattus norvegicus [3]) [nM] | Structure (SMILES) | also measured
10 | 200 | C/N=C(\NC#N)N[C@@H]1c2cc(C#N)ccc2OC(C)(C)[C@H]1O | Max decrease (Rattus norvegicus [1]): 23%; Max decrease (Rattus norvegicus [2]): 46%; Max decrease (Rattus norvegicus [4]): 15%; Max decrease (Rattus norvegicus [5]): 44%
11 | > 100000 | CN(C)CC/N=C(/NC#N)N[C@@H]1c2cc(C#N)ccc2OC(C)(C)[C@H]1O | 
12 | 470 | CC1(C)Oc2ccc(C#N)cc2[C@@H](N2CCN=C2NC#N)[C@@H]1O | 
13 | 320 | CC1(C)Oc2ccc(C#N)cc2[C@@H](/N=C(/N)NC#N)[C@@H]1O | 
14 | 380 | CC/N=C(/NC#N)N[C@@H]1c2cc(C#N)ccc2OC(C)(C)[C@H]1O | 
